Laboratory results published in patent publication US20240065302A1, “SWEETENER COMPOSITIONS COMPRISING MOGROSIDES AND USES THEREOF” (Firmenich Incorporated, priority 2021, published 2024).

Columns and labels:
Assay type in all cases: in vivo, human
[1] = Sensory testing for apple drink (panel of volunteers); details: for Bitterness / Delayed Sweetness / Global Flavor Intensity / Sweetness / Thickness/Body: in-mouth, normalized to Reb M
Protocol: (§1) A panel of volunteers evaluated siratose for in-mouth attributes (sweetness, delayed sweetness, sourness, bitterness, global flavor intensity, thickness/body, and astringence) and aftertaste (AT) attributes (lingering sweetness, overall off-taste intensity, licorice off-tast, bitterness off-taste, and mouth coating) on a 10-point scale. Two replicate session were conducted, with a 20 minute break between sessions. There was a 90 second delay between samples within a session. Panelists evaluated all samples in a first session and evaluated the samples again a second time in a second session. Control samples of Rebaudioside M (Reb M) were evaluated during all sessions as a control. Mogroside V was also evaluated and sensory data for mogroside V is provided.
(§2) Data analysis was performed using 2-way analysis of variance (ANOVA) with interaction using Tukey's HSD test. The data was normalized for each attribute according to average scores for Reb M.

[2] = Sensory testing for lemon-lime carbonated soft drink (panel of volunteers)
Protocol: as §1, §2
A panel of volunteers evaluated the siratose-containing lemon-lime carbonated soft drink for in-mouth attributes and aftertaste attributes according to the methods described in Example 1 above.

[3] = Sensory testing for sparkling orange beverage (panel of volunteers)
Protocol: as §1, §2
A panel of volunteers evaluated a sparkling orange beverage containing siratose for in-mouth attributes and aftertaste attibutes according to the methods described in Example 1 above.

[4] = Sensory testing for vanilla milk (panel of volunteers); details: for Licorice Aftertaste / Lingering Sweetness / Mouth Coating / Overall Off-Taste: aftertaste
Protocol: as §1, §2
A panel of volunteers evaluated vanilla milk containing siratose for in-mouth attributes and aftertaste attributes according to the methods described in Example 1 above.

[5] = Expert panelists' comparison of mogrosides with stevia; details: with respect to Examples 4 and 5 (so in the source)
Protocol: (§3) A panel of flavorists at three locations evaluated lemon-lime beverage various mogrosides at a concentration of 600 ppm mogrosides for in-mouth attributes (peak sweetness, upfront sweetness, bitterness, and mouthfeel/thickness) and aftertaste attributes (sweet tastle linger), on a 0 to 10 scale. The in-mouth attributes were evaluated while holding the sample in the mouth, while the aftertaste attributes were evaluated after expectoration.
as §3, with “vanilla milk containing” for “lemon-lime beverage”, “400” for “600”, “expectoration. The data was analyzed using Duncan's new multiple range test and the scores are provided in the data below in parentheses.” for “expectoration.”

[6] = Additional sensory testing for lemon-flavored (lemon-lime) beverage (panel of flavorists); details: 600 ppm mogrosides, in-mouth, 0 to 10 scale
Protocol: as §3

[7] = Additional sensory testing for vanilla milk (panel of flavorists); details: 400 ppm mogrosides, in-mouth, 0 to 10 scale
Protocol: as §3, with “vanilla milk containing” for “lemon-lime beverage”, “400” for “600”, “expectoration. The data was analyzed using Duncan's new multiple range test and the scores are provided in the data below in parentheses.” for “expectoration.”

[8] = 250 ppm, aftertaste, 10-point scale
[9] = 500 ppm, aftertaste, 10-point scale
[10] = 600 ppm, aftertaste, 10-point scale, normalized
[11] = 600 ppm, in-mouth, 10-point scale, normalized
[12] = 250 ppm, aftertaste, 10-point scale, normalized
[13] = 250 ppm, in-mouth, 10-point scale, normalized
[14] = 200 ppm, 10-point scale, normalized
[15] = 200 ppm, in-mouth, 10-point scale, normalized
[16] = 400 ppm, 10-point scale, normalized
[17] = 400 ppm, in-mouth, 10-point scale, normalized

C[C@H](CC[C@@H](O[C@@H]1O[C@H](CO[C@H]2O[C@H](CO)[C@@H](O)[C@H](O)[C@H]2O)[C@@H](O)[C@H](O)[C@H]1O[C@@H]1O[C@H](CO)[C@@H](O)[C@H](O)[C@H]1O)C(C)(C)O)[C@H]1CC[C@@]2(C)[C@]3(C)CC=C4[C@@H](CC[C@H](O[C@@H]5O[C@H](CO)[C@@H](O)[C@H](O)[C@H]5O)C4(C)C)[C@]3(C)[C@H](O)C[C@]12C [siratose]
Sensory profile compared with mogroside V (in words) [1]: sweeter, less bitter, and have a higher global flavor intensity than mogroside V, while having a lower overall off taste, licorice aftertaste, and bitterness aftertaste
Bitterness Aftertaste [1, 8]: 1.1
Licorice Aftertaste [1, 8]: 1.8
Lingering Sweetness [1, 8]: 3.4
Overall Off-Taste [1, 8]: 2.8
Bitterness ([1]; 250 ppm, 10-point scale): 1.5
Delayed Sweetness ([1]; 250 ppm, 10-point scale): 2.2
Global Flavor Intensity ([1]; 250 ppm, 10-point scale): 3.7
Sweetness ([1]; 250 ppm, 10-point scale): 4.2
Thickness/Body ([1]; 250 ppm, 10-point scale): 1.5
Licorice Aftertaste [1, 9]: 2.8
Lingering Sweetness [1, 9]: 5.2
Mouth Coating [1, 9]: 2.6
Overall Off-Taste [1, 9]: 4.0
Bitterness ([1]; 500 ppm, 10-point scale): 1.7
Delayed Sweetness ([1]; 500 ppm, 10-point scale): 3.4
Global Flavor Intensity ([1]; 500 ppm, 10-point scale): 4.6
Sweetness ([1]; 500 ppm, 10-point scale): 5.9
Thickness/Body ([1]; 500 ppm, 10-point scale): 1.8
Sensory profile compared with control Reb M (in words) ([1]; same concentration): high sweetness score and similar in-mouth and aftertaste attributes as the control Reb M samples
Sensory profile compared with mogroside V (in words) [2]: higher sweetness and global flavor intensity as compared to mogroside V while having a similar aftertaste profile
Bitterness Aftertaste [2, 10]: 1.3
Licorice Aftertaste [2, 10]: 2.3
Lingering Sweetness [2, 10]: 4.3
Overall Off-Taste [2, 10]: 3.9
Bitterness [2, 11]: 2.1
Delayed Sweetness [2, 11]: 3.9
Global Flavor Intensity [2, 11]: 4.5
Sweetness [2, 11]: 6.0
Sensory profile compared with control Reb M (in words) ([2]; same concentration): high sweetness score and similar in-mouth and aftertaste attributes as the control Reb M samples
Off-taste and mouth coating compared with Reb M (in words) [3]: slightly lower off-taste and higher mouth coating than Reb M
Sweetness compared with mogroside V (in words) [3]: greater sweetness than mogroside V
Licorice Aftertaste [3, 12]: 2.9
Lingering Sweetness [3, 12]: 4.4
Mouth Coating [3, 12]: 3.0
Overall Off-Taste [3, 12]: 3.1
Delayed Sweetness [3, 13]: 4.1
Sweetness [3, 13]: 5.8
Sweetness and delayed sweetness compared with control Reb M (in words) ([3]; same concentration): high sweetness score and an increased delayed sweetness compared to the control Reb M samples
Sensory profile compared with Reb M (in words) ([4]; 200 ppm and 400 ppm): improved sweetness as comparted to Reb M
Sensory profile compared with mogroside V (in words) ([4]; 200 ppm and 400 ppm): sweeter than mogroside V at both 200 ppm and 400 ppm, while having a similar aftertaste profile
Licorice Aftertaste [4, 14]: 1.0
Lingering Sweetness [4, 14]: 3.1
Mouth Coating [4, 14]: 3.2
Overall Off-Taste [4, 14]: 1.9
Astringence [4, 15]: 0.5
Delayed Sweetness [4, 15]: 1.7
Fattiness [4, 15]: 3.1
Sourness [4, 15]: 0.5
Sweetness [4, 15]: 5.6
Licorice Aftertaste [4, 16]: 1.1
Lingering Sweetness [4, 16]: 4.0
Mouth Coating [4, 16]: 0.8
Overall Off-Taste [4, 16]: 2.4
Astringence [4, 17]: 0.5
Bitterness [4, 17]: 0.6
Delayed Sweetness [4, 17]: 2.3
Fattiness [4, 17]: 3.6
Global Flavor Intensity [4, 17]: 5.1
Sourness [4, 17]: 0.5
Sweetness [4, 17]: 7.1
Aftertaste and mouthfeel compared with stevia (in words) [5]: lower licorice aftertaste and lower bitter aftertaste as compared with stevia while having a better mouthfeel

C[C@H](CC[C@@H](O[C@@H]1O[C@H](CO[C@@H]2O[C@H](CO)[C@@H](O)[C@H](O)[C@H]2O)[C@@H](O)[C@H](O)[C@H]1O[C@@H]1O[C@H](CO)[C@@H](O)[C@H](O)[C@H]1O)C(C)(C)O)[C@H]1CC[C@@]2(C)[C@@H]3CC=C4[C@@H](CC[C@H](O[C@@H]5O[C@H](CO)[C@@H](O)[C@H](O)[C@H]5O)C4(C)C)[C@]3(C)[C@H](O)C[C@]12C [Siamenoside I]
Peak Sweetness [6]: 6.571 (b)_
Peak Sweetness [7]: 7.375 (a)_
Aftertaste and mouthfeel compared with stevia (in words) [5]: lower licorice aftertaste and lower bitter aftertaste as compared with stevia while having a better mouthfeel

C[C@H](CC[C@@H](O[C@@H]1O[C@H](CO[C@@H]2O[C@H](CO)[C@@H](O)[C@H](O)[C@H]2O)[C@@H](O)[C@H](O)[C@H]1O[C@@H]1O[C@H](CO)[C@@H](O)[C@H](O)[C@H]1O)C(C)(C)O)[C@H]1CC[C@@]2(C)[C@@H]3CC=C4[C@@H](CC[C@H](O[C@@H]5O[C@H](CO)[C@@H](O[C@@H]6O[C@H](CO)[C@@H](O)[C@H](O)[C@H]6O)[C@H](O)[C@H]5O)C4(C)C)[C@]3(C)[C@H](O)C[C@]12C [Isomogroside V]
Aftertaste and mouthfeel compared with stevia (in words) [5]: lower licorice aftertaste and lower bitter aftertaste as compared with stevia while having a better mouthfeel

Isomogroside IVE
Bitterness [7]: 1.313
Aftertaste and mouthfeel compared with stevia (in words) [5]: lower licorice aftertaste and lower bitter aftertaste as compared with stevia while having a better mouthfeel
